Data: patent US20240279149A1 (ZHEJIANG OCEAN UNIVERSITY, priority 2021, published 2024)

Columns and labels:
[1] = Singlet oxygen generation ability, ABDA absorbance decay method; format: physicochemical; settings: 5 μmol/L compound, 50 μmol/L ABDA, aqueous solution, blue LED 470 nm, 20 mW/cm^2, 180 s; FIG. 4
[2] = test system: total number of colonies of the Chinese tube whip shrimps; test: Total sterilization effect experiment: total number of colonies (aerobic plate count) of photodynamically treated shrimp in 4° C. storage; format: cell-based; settings: 20 μmol/L
Protocol: The total sterilization effect experiment and sensory evaluation of the Chinese tube whip shrimps obtained from Application Example 1, Comparative Application Example 1, and Comparative Application Example 2 were carried out. The specific steps are as follows: • (1) the Chinese tube whip shrimps obtained from Application Example 1, Comparative Application Example 1, and Comparative Application Example 2 were put into a fresh-keeping bag of a fresh-keeping box, and stored in a refrigerator at 4° C.; • (2) when stored for 2, 4, 6, 8, and 10 days, according to the method specified in the national standard GB/T 4789.2-2016 Food Microbiological Examination—Aerobic Plate Count, the total number of colonies of the Chinese tube whip shrimps treated in step (1) was measured; and • (3) when stored for 2, 4, 6, 8, and 10 days, a sensory evaluation team conducted sensory scores on the stored shrimps; the sensory score team was composed of 10 strictly trained personnel to evaluate the appearance, odor, and posture of the processed Chinese tube whip shrimps, and the average value was taken. The scoring criteria are shown in Table 1, and the sensory score result is the sum of the 3 indicator scores with a total score of 18 indicating absolute freshness and 9 indicating significant quality deterioration.
From this, it can be seen that the shelf life of refrigerated Chinese tube whip shrimp in Comparative Application Example 1 and Comparative Application Example 2 is only 4 days.

| Structure (SMILES) | singlet oxygen generation ability [1] | bacterial growth (total number of colonies) ([2]; soaking 10 min, blue LED 10 W, 470 nm, 120 s, stored at 4° C. for 2-10 days, vs Comparative Application Examples 1 and 2, p<0.05, FIG. 6) | freshness level by total number of colonies ([2]; after 10 days of refrigeration at 4° C., blue LED 10 W, 470 nm, 120 s) | freshness level by total number of colonies ([2]; on the 4th day of refrigeration at 4° C., blue LED 10 W, 470 nm, 120 s) | shelf life of fresh shrimp (in words) ([2]; photodynamic treatment of Chinese tube whip shrimp, stored at 4° C.) | shelf life of refrigerated Chinese tube whip shrimp ([2]; soaking 10 min, blue LED 10 W, 470 nm, 120 s, stored at 4° C., end of shelf life by total number of colonies) [days] |
| --- | --- | --- | --- | --- | --- | --- |
| COc1cc(/C=C/C=C/C(O)=C/C(=O)/C=C/c2ccc(Br)c(OC)c2)ccc1Br [Embodiment 1] | higher than that of the single bromine substituted curcumin derivative obtained in Embodiment 2 | significantly inhibited | approached second-level freshness | first-level freshness (the shrimp with a total number of colonies of ≤10^5 CFU/g is considered as first-level freshness) | significantly prolonged |  |
| COc1cc(/C=C/C(=O)CC(=O)/C=C/c2ccc(O)c(OC)c2)ccc1O [natural curcumin, curcumin, reference compound] |  |  |  |  |  | 4 |
